# Assay results published in paper PMC10046946, “Novel Phthalic-Based Anticancer Tyrosine Kinase Inhibitors: Design, Synthesis and Biological Activity” (Current Issues in Molecular Biology, 2023).
# Tests used:
# [1] = test system: K562 (chronic myelogenous leukemia); assay: MTT cell proliferation assay, K562; type: cell-based; details: Homo sapiens, K562, 72 h of exposition, read-out: Anti-proliferative activity IC50, K562
# Description: (§1) Tests to determine the effects of the synthesized compounds on cell viability and the half-maximal inhibitory concentration (IC50) were performed using the MTT assay, as described in our prior work.
# (§2) The target compounds 5, 6, 8–12, 14, 15, 17–22 and 24–26 were tested for antiproliferative activity against six cancer cell lines: K562 (chronic myelogenous leukemia), HL-60 (promyelocytic leukemia), MCF-7 (breast adenocarcinoma), HepG2 (human liver cancer), A549 (lung carcinoma) and OKP-GS (renal cell carcinoma). The RPMI 1788 cells (B lymphocyte, human) were used as a control to evaluate the system toxicity of the studied compounds to normal cells. Sorafenib, nilotinib and lapatinib were utilized as reference standards for comparison.
# [2] = test system: HL-60 (promyelocytic leukemia); assay: MTT cell proliferation assay, HL-60; type: cell-based; details: Homo sapiens, HL-60, 72 h of exposition, read-out: Anti-proliferative activity IC50, HL-60
# Description: as §1, §2
# [3] = test system: MCF-7 (breast adenocarcinoma); assay: MTT cell proliferation assay, MCF-7; type: cell-based; details: Homo sapiens, MCF7, MCF-7, 72 h of exposition, read-out: Anti-proliferative activity IC50, MCF-7
# Description: as §1, §2
# [4] = test system: HepG2 (human liver cancer); assay: MTT cell proliferation assay, HepG2; type: cell-based; details: Homo sapiens, HepG2, 72 h, HepG2, 72 h of exposition, read-out: Anti-proliferative activity IC50, HepG2
# Description: as §1, §2
# [5] = test system: A549 (lung carcinoma); assay: MTT cell proliferation assay, A549; type: cell-based; details: Homo sapiens, A549, 72 h of exposition, read-out: Anti-proliferative activity IC50, A549
# Description: as §1, §2
# [6] = test system: OKP-GS (renal cell carcinoma); assay: MTT cell proliferation assay, OKP-GS; type: cell-based; details: 72 h of exposition, read-out: Anti-proliferative activity IC50, OKP-GS
# Description: as §1, §2
# [7] = test system: RPMI 1788 cells (B lymphocyte, human); assay: MTT cell proliferation assay, normal RPMI 1788 cells; type: cell-based; details: normal human lymphoblastoid cells RPMI 1788, 72 h of exposition, read-out: Anti-proliferative activity IC50, RPMI 1788
# Description: as §1, §2
# [8] = test system: cancer cell lines (K562, HL-60, MCF-7, HepG2, A549, OKP-GS); assay: MTT cell proliferation assay, statements over the whole cell line panel; type: cell-based; details: statement over the cell line panel, studied concentration range up to 50 µM
# Description: as §1, §2
# [9] = target: T1, EGFR (Homo sapiens, UniProt P00533); assay: ADP-Glo kinase assay, EGFR; type: biochemical
# T1 construct: purchased Promega
# [10] = target: T2, HER2 (Homo sapiens, UniProt P04626); assay: ADP-Glo kinase assay, HER2; type: biochemical
# T2 construct: purchased Promega
# Description: (§3) The ADP-Glo kinase assay (Promega, Madison, WI, USA) was used to screen compounds 5, 8–10, 14, 17, 19 and 24 for the tyrosine kinase (Kinase Selectivity Profiling System TK-1, Promega, Madison, WI, USA) and serine/threonine kinase (Kinase Selectivity Profiling System Other/CK-1, Promega, Madison, WI, USA) inhibition effects according to the manufacturer’s technical manual. The luminescence data were analyzed as described in our prior work.
# (§4) The selectivity of the potential kinase inhibitor against a specific protein kinase or a specific family of kinases was investigated using the Kinase Selectivity Profiling System TK-1, Other/CK-1 and ADP-Glo™ Kinase assay kit (Promega, Madison, WI, USA).
# [11] = target: T3, HER4 (Homo sapiens, UniProt Q15303); assay: ADP-Glo kinase assay, HER4; type: biochemical
# T3 construct: purchased Promega
# Description: as §3, §4
# [12] = target: T4, IGF1R (insulin-like growth factor 1 receptor) (Homo sapiens, UniProt P08069); assay: ADP-Glo kinase assay, IGF1R; type: biochemical
# T4 construct: purchased Promega
# Description: as §3, §4
# [13] = target: T5, InsR (insulin receptor) (Homo sapiens, UniProt P06213); assay: ADP-Glo kinase assay, InsR; type: biochemical
# T5 construct: purchased Promega
# Description: as §3, §4
# [14] = target: T6, KDR (VEGFR-2) (Homo sapiens, UniProt P35968); assay: ADP-Glo kinase assay, KDR; type: biochemical
# T6 construct: purchased Promega
# [15] = target: T7, PDGFRα (Homo sapiens, UniProt P16234); assay: ADP-Glo kinase assay, PDGFRα; type: biochemical
# T7 construct: purchased Promega
# Description: as §3, §4
# [16] = target: T8, PDGFRβ (Homo sapiens, UniProt P09619); assay: ADP-Glo kinase assay, PDGFRβ; type: biochemical
# T8 construct: purchased Promega
# Description: as §3, §4
# [17] = target: T9, Aurora A (Homo sapiens, UniProt O14965); assay: ADP-Glo kinase assay, Aurora A; type: biochemical
# T9 construct: purchased Promega
# T9 sequence (O14965 1-403): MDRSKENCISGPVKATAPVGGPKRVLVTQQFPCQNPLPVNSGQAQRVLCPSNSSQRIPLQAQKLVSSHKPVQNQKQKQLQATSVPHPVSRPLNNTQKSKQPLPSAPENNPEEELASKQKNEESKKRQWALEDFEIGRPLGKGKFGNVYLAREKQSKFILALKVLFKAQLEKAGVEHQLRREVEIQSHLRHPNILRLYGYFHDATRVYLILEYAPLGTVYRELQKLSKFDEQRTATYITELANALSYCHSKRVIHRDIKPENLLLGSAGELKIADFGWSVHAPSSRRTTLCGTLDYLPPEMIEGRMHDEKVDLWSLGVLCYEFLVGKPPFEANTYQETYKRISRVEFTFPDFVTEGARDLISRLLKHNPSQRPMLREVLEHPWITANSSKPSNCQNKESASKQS
# Description: as §3, §4
# [18] = target: T10, Aurora B (Homo sapiens, UniProt Q96GD4); assay: ADP-Glo kinase assay, Aurora B; type: biochemical
# T10 construct: purchased Promega
# Description: as §3, §4
# [19] = test system: K562 cells; assay: Cell cycle analysis (propidium iodide, flow cytometry); type: cell-based; details: 48 h
# Description: Tumor cells were seeded on a 6-well plate at a density of 400,000 per well for K562. Test compounds 5, 14 and 15 were added at concentrations of 1, 5 and 10 μM in duplicate for 48 h. The methodology and analysis of the obtained data were performed as described in our prior work.
# As shown above, compounds 5, 14 and 15 had significant antiproliferative activities, which is why their influences on the cell cycle and apoptosis level were determined, with the aim of understanding whether these effects are cytostatic or cytotoxic. In the cell cycle experiments, K562 cells were used. […] For the determination of changes in the distribution of cells in the phases of the cell cycle, the widely employed method of staining the cells with propidium iodide was used.
# [20] = test system: K562 cells; assay: Annexin V-FITC/PI apoptosis assay; type: cell-based; details: 48 h
# Description: K562 tumor cells were plated on a 6-well plate at a density of 400,000 per well. Test compounds 5, 14 and 15 were added at concentrations of 1, 5 and 10 μM in duplicate for 48 h. The methodology and analysis of the obtained data were performed as described in our prior work.
# The effects of compounds 5, 14 and 15 on cell apoptosis were examined using the Annexin V-FITC Kit (Beckman Coulter, Brea, CA, USA) according to the protocols provided. The Annexin V-FITC Kit is an apoptosis detection kit based on the binding properties of annexin V to phosphatidylserine (PS) and on the DNA intercalating capability of propidium iodide (PI). K562 cells were treated with compound 5, 14 and 15 at 1, 5 and 10 μM for 48 h, after which annexin V/PI binding was measured by flow cytometry.
# [21] = test system: K562 cell line; assay: ROS determination (DCFH-DA, flow cytometry); type: cell-based; details: 48 h
# Description: The redox status was assessed using the K562 cell line. […] Then, the cells were washed to remove the 2′,7′-dichlorodihydrofluorescein diacetate by centrifugation at 1000 rpm for 5 min. The measurements were conducted using a Cytomics FC500 Beckman Coulter flow cytometer (FL1 channel for DCF).
# T2 sequence (P04626 23-1255): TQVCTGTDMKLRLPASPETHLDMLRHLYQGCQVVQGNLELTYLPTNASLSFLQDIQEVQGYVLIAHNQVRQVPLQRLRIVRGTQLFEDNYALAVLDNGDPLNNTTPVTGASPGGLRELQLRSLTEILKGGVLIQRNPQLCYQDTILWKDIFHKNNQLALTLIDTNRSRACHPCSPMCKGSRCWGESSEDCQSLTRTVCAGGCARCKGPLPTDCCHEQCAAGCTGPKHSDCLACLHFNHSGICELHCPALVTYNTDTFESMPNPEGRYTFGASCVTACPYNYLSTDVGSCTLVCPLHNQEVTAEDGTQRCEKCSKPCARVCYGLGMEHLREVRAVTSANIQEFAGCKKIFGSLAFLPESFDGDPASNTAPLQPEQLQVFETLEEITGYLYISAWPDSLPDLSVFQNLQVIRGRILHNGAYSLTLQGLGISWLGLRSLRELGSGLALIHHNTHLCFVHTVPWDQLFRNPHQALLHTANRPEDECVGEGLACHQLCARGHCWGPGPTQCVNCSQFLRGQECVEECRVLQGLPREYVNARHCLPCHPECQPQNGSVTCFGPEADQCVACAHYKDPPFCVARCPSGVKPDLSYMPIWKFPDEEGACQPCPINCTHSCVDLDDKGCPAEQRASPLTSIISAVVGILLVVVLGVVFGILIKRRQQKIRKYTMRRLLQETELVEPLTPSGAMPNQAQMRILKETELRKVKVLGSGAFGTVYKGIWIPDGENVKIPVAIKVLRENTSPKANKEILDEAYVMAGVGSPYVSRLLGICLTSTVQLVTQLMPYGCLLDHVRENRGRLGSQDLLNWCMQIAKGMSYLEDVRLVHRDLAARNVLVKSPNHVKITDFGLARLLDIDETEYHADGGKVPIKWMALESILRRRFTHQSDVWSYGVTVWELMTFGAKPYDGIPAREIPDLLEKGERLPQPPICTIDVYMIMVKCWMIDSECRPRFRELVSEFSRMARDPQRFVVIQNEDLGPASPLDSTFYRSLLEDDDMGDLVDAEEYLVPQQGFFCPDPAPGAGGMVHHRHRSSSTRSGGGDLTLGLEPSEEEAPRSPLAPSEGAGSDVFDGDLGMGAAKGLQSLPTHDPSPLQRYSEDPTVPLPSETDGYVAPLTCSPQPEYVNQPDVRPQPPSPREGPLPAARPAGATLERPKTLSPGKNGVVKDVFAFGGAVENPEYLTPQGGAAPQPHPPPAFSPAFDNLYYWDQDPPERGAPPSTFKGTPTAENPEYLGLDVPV
# T7 sequence (P16234 24-1089): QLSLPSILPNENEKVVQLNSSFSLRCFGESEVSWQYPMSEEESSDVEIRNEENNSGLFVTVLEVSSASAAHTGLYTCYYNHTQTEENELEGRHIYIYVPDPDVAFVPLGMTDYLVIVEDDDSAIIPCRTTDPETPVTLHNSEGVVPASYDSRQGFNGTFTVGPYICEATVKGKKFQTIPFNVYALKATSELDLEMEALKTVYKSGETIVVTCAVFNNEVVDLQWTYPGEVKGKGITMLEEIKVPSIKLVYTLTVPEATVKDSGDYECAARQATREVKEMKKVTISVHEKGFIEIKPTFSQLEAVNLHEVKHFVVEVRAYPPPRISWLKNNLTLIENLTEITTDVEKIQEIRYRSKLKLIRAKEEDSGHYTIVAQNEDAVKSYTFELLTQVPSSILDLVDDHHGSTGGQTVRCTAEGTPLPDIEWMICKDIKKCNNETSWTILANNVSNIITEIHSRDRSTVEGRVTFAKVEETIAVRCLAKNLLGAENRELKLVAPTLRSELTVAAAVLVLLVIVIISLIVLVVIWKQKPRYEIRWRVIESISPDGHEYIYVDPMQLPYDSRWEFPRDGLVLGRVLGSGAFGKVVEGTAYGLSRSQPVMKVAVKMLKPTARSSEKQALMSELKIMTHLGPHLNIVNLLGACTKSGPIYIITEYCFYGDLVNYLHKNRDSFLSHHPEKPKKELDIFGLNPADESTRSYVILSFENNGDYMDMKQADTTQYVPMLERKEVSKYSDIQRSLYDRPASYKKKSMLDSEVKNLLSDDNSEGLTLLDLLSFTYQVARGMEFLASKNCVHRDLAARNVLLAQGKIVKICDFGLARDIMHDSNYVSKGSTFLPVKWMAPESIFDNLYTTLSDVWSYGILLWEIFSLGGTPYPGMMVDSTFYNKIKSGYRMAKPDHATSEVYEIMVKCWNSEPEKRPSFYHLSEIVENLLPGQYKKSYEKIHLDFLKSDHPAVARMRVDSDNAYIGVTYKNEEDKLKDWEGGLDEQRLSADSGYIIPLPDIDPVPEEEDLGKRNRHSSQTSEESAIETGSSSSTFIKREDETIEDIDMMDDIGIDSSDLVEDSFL
# T3 sequence (Q15303 26-1308): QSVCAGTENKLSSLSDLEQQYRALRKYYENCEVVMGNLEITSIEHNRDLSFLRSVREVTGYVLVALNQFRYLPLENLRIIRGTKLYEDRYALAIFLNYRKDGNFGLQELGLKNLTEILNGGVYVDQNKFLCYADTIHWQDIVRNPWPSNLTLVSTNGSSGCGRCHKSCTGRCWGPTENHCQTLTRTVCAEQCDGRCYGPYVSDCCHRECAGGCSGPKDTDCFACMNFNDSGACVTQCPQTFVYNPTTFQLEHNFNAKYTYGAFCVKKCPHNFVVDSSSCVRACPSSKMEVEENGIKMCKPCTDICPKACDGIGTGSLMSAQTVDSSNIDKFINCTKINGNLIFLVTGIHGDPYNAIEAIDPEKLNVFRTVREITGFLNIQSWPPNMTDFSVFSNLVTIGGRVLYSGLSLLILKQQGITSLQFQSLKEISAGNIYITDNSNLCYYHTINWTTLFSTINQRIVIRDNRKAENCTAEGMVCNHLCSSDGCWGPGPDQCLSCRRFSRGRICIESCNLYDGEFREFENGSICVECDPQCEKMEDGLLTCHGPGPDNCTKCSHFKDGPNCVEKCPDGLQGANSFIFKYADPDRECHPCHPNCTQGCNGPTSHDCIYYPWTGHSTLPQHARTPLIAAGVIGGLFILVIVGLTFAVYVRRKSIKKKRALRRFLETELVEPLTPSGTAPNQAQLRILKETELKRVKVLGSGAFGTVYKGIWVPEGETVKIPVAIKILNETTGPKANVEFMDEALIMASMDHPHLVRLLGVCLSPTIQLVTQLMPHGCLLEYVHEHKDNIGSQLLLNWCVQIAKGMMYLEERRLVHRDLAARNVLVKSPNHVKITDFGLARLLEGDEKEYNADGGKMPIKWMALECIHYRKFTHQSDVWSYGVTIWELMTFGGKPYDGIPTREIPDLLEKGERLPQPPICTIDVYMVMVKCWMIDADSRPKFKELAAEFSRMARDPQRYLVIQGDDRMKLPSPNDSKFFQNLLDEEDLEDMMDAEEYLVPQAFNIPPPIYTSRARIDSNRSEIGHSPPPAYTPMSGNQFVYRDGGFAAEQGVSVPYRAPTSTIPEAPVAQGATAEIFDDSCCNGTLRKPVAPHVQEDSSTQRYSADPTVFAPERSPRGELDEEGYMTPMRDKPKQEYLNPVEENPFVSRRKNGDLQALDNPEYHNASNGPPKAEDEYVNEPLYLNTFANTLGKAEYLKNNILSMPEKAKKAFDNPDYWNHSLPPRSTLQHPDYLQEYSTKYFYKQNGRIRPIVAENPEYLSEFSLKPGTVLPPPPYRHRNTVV
# T6 sequence (P35968 20-1356): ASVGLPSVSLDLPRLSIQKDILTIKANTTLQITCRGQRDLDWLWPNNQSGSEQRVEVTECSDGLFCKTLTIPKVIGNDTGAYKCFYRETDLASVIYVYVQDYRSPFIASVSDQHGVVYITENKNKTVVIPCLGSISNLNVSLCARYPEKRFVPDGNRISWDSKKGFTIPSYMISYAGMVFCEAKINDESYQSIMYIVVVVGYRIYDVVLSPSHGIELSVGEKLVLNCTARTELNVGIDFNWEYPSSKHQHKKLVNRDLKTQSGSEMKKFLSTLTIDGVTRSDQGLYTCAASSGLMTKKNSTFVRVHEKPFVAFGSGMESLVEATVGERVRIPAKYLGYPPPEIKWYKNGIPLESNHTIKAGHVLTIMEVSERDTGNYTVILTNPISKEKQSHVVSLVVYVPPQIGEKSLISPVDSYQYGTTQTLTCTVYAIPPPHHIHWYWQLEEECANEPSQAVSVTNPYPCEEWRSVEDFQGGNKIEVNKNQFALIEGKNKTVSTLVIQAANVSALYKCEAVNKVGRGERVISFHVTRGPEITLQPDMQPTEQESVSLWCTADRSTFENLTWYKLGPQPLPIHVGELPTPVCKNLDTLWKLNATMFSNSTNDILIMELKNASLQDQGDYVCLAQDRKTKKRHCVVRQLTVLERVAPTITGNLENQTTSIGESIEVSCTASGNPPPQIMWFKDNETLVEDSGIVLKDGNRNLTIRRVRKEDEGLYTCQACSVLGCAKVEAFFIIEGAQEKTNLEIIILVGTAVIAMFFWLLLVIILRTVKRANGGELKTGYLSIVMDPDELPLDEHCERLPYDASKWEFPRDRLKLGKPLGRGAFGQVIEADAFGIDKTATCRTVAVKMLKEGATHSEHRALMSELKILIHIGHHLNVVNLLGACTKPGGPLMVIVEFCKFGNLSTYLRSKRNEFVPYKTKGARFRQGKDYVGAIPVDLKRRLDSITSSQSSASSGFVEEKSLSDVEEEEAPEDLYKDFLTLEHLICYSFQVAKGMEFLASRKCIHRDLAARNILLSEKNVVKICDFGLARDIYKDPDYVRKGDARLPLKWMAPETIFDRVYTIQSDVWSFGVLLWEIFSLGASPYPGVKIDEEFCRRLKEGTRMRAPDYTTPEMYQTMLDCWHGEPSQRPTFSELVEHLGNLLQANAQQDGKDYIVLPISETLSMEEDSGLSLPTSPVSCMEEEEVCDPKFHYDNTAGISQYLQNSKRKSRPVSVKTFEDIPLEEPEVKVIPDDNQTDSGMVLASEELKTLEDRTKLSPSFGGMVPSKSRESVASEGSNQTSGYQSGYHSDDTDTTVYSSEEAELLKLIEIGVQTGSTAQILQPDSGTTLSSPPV
structure (smiles),measurement,setting,value
"CNC(=O)c1cc(Oc2ccc(NC(=O)c3cccc(C(=O)Nc4cc(-n5cnc(C)c5)cc(C(F)(F)F)c4)c3)cc2)ccn1 [Compound 11, N1-(3-(4-methyl-1H-imidazol-1-yl)-5-(trifluoromethyl)phenyl)-N3-(4-((2-(methylcarbamoyl)pyridin-4-yl)oxy)phenyl)isophthalamide]",IC50,[1],> 50 µM
same,IC50,[2],> 50 µM
same,IC50,[3],> 50 µM
same,IC50,[4],> 50 µM
same,IC50,[5],> 50 µM
same,IC50,[6],26.5 ± 3.65 µM
same,IC50,[7],21.9 ± 0.44 µM
same,Antiproliferative activity (IC50) over the studied cell cultures,[8],lack of sensitivity of the cancer cells in the studied concentration range
same,melting point,,313 to 315 °C
"Cc1cn(-c2cc(NC(=O)c3cccc(C(=O)N4CCN(C(=O)c5ccccc5F)CC4)c3)cc(C(F)(F)F)c2)cn1 [Compound 14, 3-(4-(2-Fluorobenzoyl)piperazine-1-carbonyl)-N-(3-(4-methyl-1H-imidazol-1-yl)-5-(trifluoromethyl)phenyl)benzamide]",IC50,[1],7.71 ± 2.84 µM
same,IC50,[2],32.5 ± 1.5 µM
same,IC50,[3],27.3 ± 0.16 µM
same,IC50,[4],44.1 ± 4.19 µM
same,IC50,[5],> 50 µM
same,IC50,[6],> 50 µM
same,IC50,[7],26.6 ± 2.31 µM
same,inhibition at 10 µM,[9],21%
same,inhibition at 10 µM,[10],14%
same,inhibition at 10 µM,[11],0%
same,inhibition at 10 µM,[12],0%
same,inhibition at 10 µM,[13],0%
same,inhibition at 10 µM,[14],26%
same,inhibition at 10 µM,[15],24%
same,inhibition at 10 µM,[16],23%
same,inhibition at 10 µM,[17],0%
same,inhibition at 10 µM,[18],7%
same,"Apoptosis, % (cell cycle analysis)","[19]; K562, 1 µM",14.28%
same,"G1, %","[19]; K562, 1 µM",32.65%
same,"G2/M, %","[19]; K562, 1 µM",46.95%
same,"S, %","[19]; K562, 1 µM",20.41%
same,"Apoptosis, % (cell cycle analysis)","[19]; K562, 5 µM",25.10%
same,"G1, %","[19]; K562, 5 µM",27.58%
same,"G2/M, %","[19]; K562, 5 µM",55.16%
same,"S, %","[19]; K562, 5 µM",17.25%
same,"Apoptosis, % (cell cycle analysis)","[19]; K562, 10 µM",38.02%
same,"G1, %","[19]; K562, 10 µM",31.21%
same,"G2/M, %","[19]; K562, 10 µM",51.08%
same,"S, %","[19]; K562, 10 µM",17.71%
same,normal live cells (living cells),"[20]; K562, 1 µM",83.95%
same,normal live cells (living cells),"[20]; K562, 5 µM",65.68%
same,normal live cells (living cells),"[20]; K562, 10 µM",56.83%
same,"ROS Level, % of Control","[21]; K562, 5 µM",92.84 % of Control
same,"ROS Level, % of Control","[21]; K562, 10 µM",76.96 % of Control
same,"ROS Level, % of Control","[21]; K562, 20 µM",71.90 % of Control
same,melting point,,135 to 138 °C
"Cc1cn(-c2cc(NC(=O)c3ccc(C)c(Nc4nccc(-c5cccnc5)n4)c3)cc(C(F)(F)F)c2)cn1 [Nilotinib, reference compound]",IC50,[1],< 0.1 µM
same,IC50,[2],22.7 ± 4.76 µM
same,IC50,[3],4.2 ± 0.14 µM
same,IC50,[4],4.81 ± 0.21 µM
same,IC50,[5],> 50 µM
same,IC50,[6],2.76 ± 0.06 µM
same,IC50,[7],19.32 ± 0.09 µM
same,IC50,[8]; read-out: Antiproliferative activity (IC50) over the studied cell cultures,2 to 27 µM
